The values below come from ChEMBL document CHEMBL1201862, “PubChem BioAssay data set” (2004).

Structures are written as SMILES.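 Growth conditions: 96-well plates. Treatment: test compound, 48 hours, 5 concentrations. Analysis: linear interpolation between bracketing concentrations; unreached endpoints set to highest concentration. Abbreviation: GI50, concentration required for 50% inhibition of growth.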 Activity calls are given as the source filed them. No stated cut-off is given here; in the data, active = GI50 up to about 1.1 µM and inactive = higher.

Some test systems named below: ACHN; CAKI-1; CCRF-CEM; COLO 205; DU-145; EKVX; HCT-116; HCT-15; HT-29; IGROV-1; M14; MCF7; MOLT-4; Malme-3M; NCI-H23; NCI/ADR-RES; OVCAR-4; RPMI-8226; SNB-75; UACC-257.
Test in all cases: NCI anticancer screen, dose series, 48 h

Consider `CN1CCN(c2nc3ccccc3nc2C(=O)c2ccc(Cl)cc2)CC1`, for which the GI50 is > 100 µM (inactive) in the assay on ACHN; 40.4 µM (inactive) with CAKI-1; 48.6 µM (inactive) with CCRF-CEM; 35.8 µM (inactive) in the assay on COLO 205; > 100 µM (inactive) in the assay on DU-145; 86.3 µM (inactive) with EKVX. Further, the GI50 is 35.2 µM (inactive) in the assay with HCT-116; 55.6 µM in the assay with HCT-15; 38.2 µM (inactive) in the assay on HT-29; 83.6 µM (inactive) in the assay with IGROV-1; 22.2 µM (inactive) in the assay on M14; 27.7 µM (inactive) with MCF7. In addition, the GI50 in the assay with MOLT-4 is 65 µM (inactive); in the assay with Malme-3M it was 16.7 µM (inactive); in the assay on NCI-H23, 49.4 µM (inactive); in the assay with NCI/ADR-RES, 54.5 µM (inactive); with OVCAR-4 it was 58.6 µM (inactive); in the assay with RPMI-8226 it was 22.2 µM (inactive). The GI50 in the assay with SNB-75 was > 100 µM (inactive); in the assay with UACC-257, 36.1 µM (inactive).

Consider `CN1CC[C@]2(c3cccc(O)c3)CC(=O)/C(=C/c3ccccc3)[C@@H]1C2.[O-][Cl+3]([O-])([O-])O`, for which the GI50 in the assay with ACHN was 2.25 µM (inactive); with CAKI-1, 2.29 µM (inactive); with CCRF-CEM it was 2.13 µM (inactive); in the assay with COLO 205 it was 6.97 µM (inactive); in the assay with DU-145 it was 5.52 µM (inactive); in the assay with EKVX, 6.92 µM (inactive). Also, the GI50 in the assay with HCT-116 was 2.31 µM (inactive); in the assay on HCT-15, 1.66 µM; in the assay with HT-29 it was 2.62 µM (inactive); with IGROV-1, 4.39 µM (inactive); in the assay with M14 it was 2.73 µM (inactive); in the assay with MCF7, 2.19 µM (inactive). The GI50 with MOLT-4 was 2.04 µM (inactive); in the assay on Malme-3M, 2.64 µM (inactive); in the assay on NCI-H23 it was 4.97 µM (inactive); with NCI/ADR-RES it was 2.98 µM (inactive); in the assay on OVCAR-4 it was 3.37 µM (inactive); with RPMI-8226, 1.86 µM (inactive). In addition, the results for the GI50 in the assay with SNB-75 and with UACC-257 were 2 µM (inactive) and 3.24 µM (inactive), respectively.

With `OC1(c2ccccc2)CC2CCC(C1)N2CCCC1(c2ccc(F)cc2)OCCO1` (stereo not given), the GI50 was > 100 µM (inactive) in the assay on ACHN; > 100 µM (inactive) in the assay with CAKI-1; 3.66 µM (inactive) with CCRF-CEM; 69.8 µM (inactive) with COLO 205; > 100 µM (inactive) in the assay on DU-145; > 100 µM (inactive) with EKVX. Also, the GI50 in the assay on HCT-116 was > 100 µM (inactive); in the assay on HCT-15 it was above 100 µM; with HT-29, 36.5 µM (inactive); in the assay with IGROV-1 it was > 100 µM (inactive); in the assay with M14, 21 µM (inactive); in the assay on MCF7, > 100 µM (inactive). The GI50 is 47.2 µM (inactive) in the assay with MOLT-4; 98.4 µM (inactive) with Malme-3M; > 100 µM (inactive) in the assay with NCI-H23; 15.6 µM (inactive) in the assay on NCI/ADR-RES; > 100 µM (inactive) in the assay on OVCAR-4; 61.4 µM (inactive) in the assay on RPMI-8226. Further, the GI50 in the assay on SNB-75 is > 100 µM (inactive); with UACC-257, 28.1 µM (inactive).

In the case of `S=C(Nc1ccc(Cl)cc1)SC1CCCCC1`, the GI50 with ACHN is 17.5 µM (inactive); with CAKI-1 it was 15 µM (inactive); in the assay on CCRF-CEM it was 33.7 µM (inactive); in the assay with COLO 205 it was 30.5 µM (inactive); in the assay on DU-145, 40.9 µM (inactive); with EKVX it was 20.8 µM (inactive). Besides, the GI50 in the assay on HCT-116 was 25.6 µM (inactive); in the assay with HCT-15, 23.2 µM; in the assay with HT-29, 20.8 µM (inactive); with IGROV-1 it was 21.2 µM (inactive); with M14 it was 19.7 µM (inactive); in the assay with MCF7 it was 19 µM (inactive). Besides, the GI50 in the assay on MOLT-4 was 29.2 µM (inactive); in the assay on Malme-3M, 28.4 µM (inactive); in the assay with NCI-H23, 20.5 µM (inactive); with NCI/ADR-RES, 37.1 µM (inactive); with OVCAR-4 it was 33.9 µM (inactive); in the assay on RPMI-8226 it was 40.1 µM (inactive). The GI50 is 25.2 µM (inactive) in the assay with SNB-75 and 25.9 µM (inactive) with UACC-257.

Regarding `COc1cc2c(c(O)c1OC)C(=O)[C@@H]1CCC(=O)N1C2c1ccccc1` (stereo not given in full), the GI50 in the assay with ACHN is 85.7 µM (inactive); with CAKI-1, > 100 µM (inactive); in the assay with CCRF-CEM it was 30.5 µM (inactive); with COLO 205, > 100 µM (inactive); in the assay with DU-145, > 100 µM (inactive); in the assay on EKVX, 51.9 µM (inactive). Besides, the GI50 was 66.8 µM (inactive) in the assay with HCT-116; above 100 µM in the assay on HCT-15; 87.7 µM (inactive) in the assay on HT-29; > 100 µM (inactive) in the assay with IGROV-1; > 100 µM (inactive) with M14; > 100 µM (inactive) in the assay with MCF7. Besides, the GI50 in the assay on MOLT-4 was 36 µM (inactive); in the assay with Malme-3M it was > 100 µM (inactive); in the assay on NCI-H23 it was > 100 µM (inactive); with NCI/ADR-RES, > 100 µM (inactive); in the assay on OVCAR-4, > 100 µM (inactive); in the assay on RPMI-8226 it was 45.7 µM (inactive). In addition, the GI50 in the assay with SNB-75 is 35.6 µM (inactive); with UACC-257, > 100 µM (inactive).

With `Nc1nc(N)c(NC(=O)CCCO)c(=O)[nH]1`, the GI50 with ACHN, in the assay on CAKI-1, in the assay on CCRF-CEM, in the assay with COLO 205, with DU-145 and in the assay with EKVX was > 100 µM (inactive) in each case. The GI50 in the assay with HCT-116 is > 100 µM (inactive); in the assay with HCT-15, above 100 µM; with HT-29 it was > 100 µM (inactive); with IGROV-1 it was > 100 µM (inactive); in the assay on M14 it was > 100 µM (inactive); with MCF7 it was > 100 µM (inactive). For the same compound, the GI50 with MOLT-4, with Malme-3M, with NCI-H23, in the assay with NCI/ADR-RES, in the assay with OVCAR-4 and with RPMI-8226 was > 100 µM (inactive) throughout. In addition, the GI50 in the assay on SNB-75 and in the assay with UACC-257 was > 100 µM (inactive) throughout.

As for `Cc1cc(S(=O)(=O)Nc2nc(N)nc(N3N=CCC3C)n2)c(SCC(=O)O)cc1Cl` (stereo not given), the GI50 in the assay with ACHN, in the assay on CAKI-1, in the assay on CCRF-CEM, in the assay with COLO 205, with DU-145 and with EKVX was > 10 µM (inactive) in each case. Moreover, the GI50 is > 10 µM (inactive) in the assay with HCT-116; above 10 µM in the assay with HCT-15; > 10 µM (inactive) with HT-29; > 10 µM (inactive) in the assay with IGROV-1; > 10 µM (inactive) in the assay with M14; > 10 µM (inactive) with MCF7. Further, the GI50 in the assay on MOLT-4, with Malme-3M, in the assay with NCI-H23, in the assay with NCI/ADR-RES, in the assay on OVCAR-4 and with RPMI-8226 was > 10 µM (inactive) in each case. Moreover, the GI50 in the assay with SNB-75 and in the assay on UACC-257 was > 10 µM (inactive) in each case.

In the case of `COC(=O)/C(C#N)=C/c1cc(C(C)(C)C)c(O)c(C(C)(C)C)c1`, the GI50 in the assay with ACHN is 2.77 µM (inactive); in the assay on CAKI-1 it was 2.89 µM (inactive); in the assay on CCRF-CEM it was 1.9 µM (inactive); in the assay on COLO 205, 1.44 µM (inactive); in the assay with DU-145 it was 4.58 µM (inactive); with EKVX, 2.33 µM (inactive). The GI50 is 2.66 µM (inactive) in the assay with HCT-116; 2.67 µM in the assay with HCT-15; 2.82 µM (inactive) in the assay with HT-29; 4.55 µM (inactive) with IGROV-1; 3.12 µM (inactive) in the assay on M14; 2.66 µM (inactive) with MCF7. Further, the GI50 was 2.2 µM (inactive) with MOLT-4; 5.55 µM (inactive) in the assay on Malme-3M; 1.42 µM (inactive) with NCI-H23; 1.11 µM (active) in the assay on NCI/ADR-RES; 1.85 µM (inactive) in the assay on OVCAR-4; 0.401 µM (active) in the assay with RPMI-8226. The GI50 was 3.3 µM (inactive) in the assay with SNB-75 and 1.82 µM (inactive) in the assay on UACC-257.

`COc1ccccc1C1ON=C(c2ccc([N+](=O)[O-])cc2)N1C12CC3CC(CC(C3)C1)C2` (stereo not given): the GI50 in the assay with ACHN was > 100 µM (inactive); with CAKI-1, > 100 µM (inactive); with CCRF-CEM, 28.7 µM (inactive); in the assay with COLO 205, > 100 µM (inactive); with DU-145, > 100 µM (inactive); with EKVX, > 100 µM (inactive). Also, the GI50 was 47.5 µM (inactive) in the assay on HCT-116; 91.6 µM in the assay on HCT-15; 45.4 µM (inactive) with HT-29; > 100 µM (inactive) in the assay with IGROV-1; 84.3 µM (inactive) with M14; 47.9 µM (inactive) in the assay with MCF7. Besides, the GI50 was 17.6 µM (inactive) in the assay on MOLT-4; 61.5 µM (inactive) in the assay on Malme-3M; > 100 µM (inactive) in the assay with NCI-H23; > 100 µM (inactive) with NCI/ADR-RES; > 100 µM (inactive) in the assay with OVCAR-4; 20.8 µM (inactive) with RPMI-8226. The GI50 in the assay with SNB-75 was 42.1 µM (inactive); with UACC-257 it was > 100 µM (inactive).

`c1ccc(-n2nc3ccc4nonc4c3n2)cc1`: the GI50 in the assay on ACHN was > 100 µM (inactive); in the assay on CAKI-1, > 100 µM (inactive); with CCRF-CEM it was > 100 µM (inactive); in the assay on COLO 205 it was > 100 µM (inactive); with DU-145, > 100 µM (inactive); in the assay on EKVX, 44.6 µM (inactive). The GI50 with HCT-116 is > 100 µM (inactive); with HCT-15, above 100 µM; with HT-29, > 100 µM (inactive); with IGROV-1, > 100 µM (inactive); in the assay on M14, > 100 µM (inactive); in the assay with MCF7 it was > 100 µM (inactive). Besides, the GI50 with MOLT-4, with Malme-3M, in the assay on NCI-H23, in the assay with NCI/ADR-RES, in the assay with OVCAR-4 and in the assay on RPMI-8226 was > 100 µM (inactive) each time. The GI50 with SNB-75 is 49.1 µM (inactive); with UACC-257 it was > 100 µM (inactive).
